The source of these data is patent US20030186967A1, “Acylresorcinol derivatives are selective vitronectin receptor inhibitors” (American Home Products Corporation, priority 1998, published 2003).

The experiment addresses T1, Vitronectin receptor αVβ3 (Homo sapiens, UniProt P05106+P06756).
T1 construct: expressed in transfected cells; host or cells: 512P5 cells (plasma membrane preparation)
The experiment is described as follows: Vitronectin Receptor αVβ3 Binding Assay. To be noted: read-out: VnR (IC50μM).

T1 sequence (P06756 31-889 limits assumed): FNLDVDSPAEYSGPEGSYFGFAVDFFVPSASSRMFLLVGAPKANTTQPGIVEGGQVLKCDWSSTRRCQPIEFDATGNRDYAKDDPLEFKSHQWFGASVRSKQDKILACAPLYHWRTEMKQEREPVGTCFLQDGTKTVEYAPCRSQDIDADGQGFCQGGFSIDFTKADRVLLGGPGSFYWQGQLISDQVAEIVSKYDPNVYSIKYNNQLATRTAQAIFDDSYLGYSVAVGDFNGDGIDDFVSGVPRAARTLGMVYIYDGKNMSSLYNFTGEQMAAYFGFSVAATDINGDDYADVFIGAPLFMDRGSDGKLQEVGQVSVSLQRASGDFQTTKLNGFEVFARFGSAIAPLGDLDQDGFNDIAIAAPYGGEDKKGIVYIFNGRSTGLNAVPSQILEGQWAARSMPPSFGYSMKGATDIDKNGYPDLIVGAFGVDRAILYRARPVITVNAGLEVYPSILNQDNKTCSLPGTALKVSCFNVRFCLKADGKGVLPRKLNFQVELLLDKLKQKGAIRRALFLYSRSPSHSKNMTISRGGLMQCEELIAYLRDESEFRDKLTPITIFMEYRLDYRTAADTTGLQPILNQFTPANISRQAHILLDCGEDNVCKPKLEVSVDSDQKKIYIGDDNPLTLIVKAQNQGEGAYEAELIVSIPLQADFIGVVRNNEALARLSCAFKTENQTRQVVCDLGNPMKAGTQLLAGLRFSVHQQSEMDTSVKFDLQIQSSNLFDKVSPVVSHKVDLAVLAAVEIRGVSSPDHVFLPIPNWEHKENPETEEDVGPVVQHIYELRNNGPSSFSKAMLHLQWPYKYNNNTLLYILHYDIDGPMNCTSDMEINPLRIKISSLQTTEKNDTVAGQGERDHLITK
T1 sequence (P06756 891-1048 partner limits assumed): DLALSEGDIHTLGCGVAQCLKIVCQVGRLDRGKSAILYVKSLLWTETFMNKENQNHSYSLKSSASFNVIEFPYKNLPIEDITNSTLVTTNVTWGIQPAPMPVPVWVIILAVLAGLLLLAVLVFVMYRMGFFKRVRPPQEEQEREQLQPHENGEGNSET
T1 sequence (P05106 27-788): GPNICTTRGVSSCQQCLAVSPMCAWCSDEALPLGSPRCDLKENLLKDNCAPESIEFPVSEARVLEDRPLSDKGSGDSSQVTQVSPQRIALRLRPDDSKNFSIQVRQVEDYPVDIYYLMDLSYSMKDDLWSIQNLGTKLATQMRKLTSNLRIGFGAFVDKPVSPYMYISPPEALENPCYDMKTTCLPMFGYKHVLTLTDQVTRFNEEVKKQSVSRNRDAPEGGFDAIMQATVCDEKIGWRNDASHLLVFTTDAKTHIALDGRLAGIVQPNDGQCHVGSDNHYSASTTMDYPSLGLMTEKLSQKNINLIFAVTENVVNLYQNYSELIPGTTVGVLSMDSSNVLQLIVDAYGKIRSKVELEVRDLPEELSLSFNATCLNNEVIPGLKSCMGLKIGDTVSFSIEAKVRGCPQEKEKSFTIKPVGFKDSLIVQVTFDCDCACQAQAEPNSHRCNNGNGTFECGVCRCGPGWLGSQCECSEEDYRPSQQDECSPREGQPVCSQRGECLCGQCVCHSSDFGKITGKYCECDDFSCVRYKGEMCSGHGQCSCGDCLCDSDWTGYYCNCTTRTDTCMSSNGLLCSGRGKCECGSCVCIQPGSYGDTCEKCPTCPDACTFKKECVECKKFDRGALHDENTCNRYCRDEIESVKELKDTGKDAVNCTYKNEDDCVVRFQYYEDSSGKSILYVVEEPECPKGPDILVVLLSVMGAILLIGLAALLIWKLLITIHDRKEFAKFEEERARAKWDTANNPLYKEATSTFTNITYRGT

On to `COC(=O)N[C@@H](CNC(=O)c1ccc(OCCNC(=O)NCc2cccnc2)cc1O)C(=O)O` [Example 234, (2S)-3-({2-hydroxy-4-[2-({[(pyridin-3-ylmethyl)amino]carbonyl}-amino)ethoxy]-benzoyl}amino)-2-[(methoxycarbonyl)amino]propanoic acid], for which the IC50 amounted to 8.7 µM.
The figure for `O=C(Nc1ccccc1-c1ccccc1)N[C@@H](CNC(=O)c1ccc(OCCNc2ncccn2)cc1O)C(=O)O` [Example 82, (2S)-2-{[([1,1′-biphenyl]-2-ylamino)carbonyl]amino}-3-({2-hydroxy-4-[2-(pyrimidin-2-ylamino)ethoxy]benzoyl}amino)propanoic acid] is over 1 µM.
In the case of `C#CCCC(=O)N[C@@H](CNC(=O)c1ccc(OCCNC2=NCCN2)cc1O)C(=O)O` [Example 125, (2S)-3-({4-[2-(4,5-dihydro-1H-imidazol-2-ylamino)ethoxy]-2-hydroxybenzoyl}-amino)-2-(pent-4-ynoylamino)propanoic acid], the IC50 was over 1 µM.
Turning to `COc1ccc(CNC(=O)NCCOc2ccc(C(=O)NC[C@H](NC(=O)OCc3ccccc3)C(=O)O)c(O)c2)cc1` [Example 262, (2S)-2-{[(benzyloxy)carbonyl]amino}-3-({2-hydroxy-4-[2-({[(4-methoxybenzyl)-amino]carbonyl}amino)ethoxy]benzoyl}amino)propanoic acid], the IC50 came out at 12.6 µM.
The value for `CC(C)COC(=O)N[C@@H](CNC(=O)c1ccc(OCCNC2=NCCN2)cc1O)C(=O)O` [Example 107, (2S)-3-({4-[2-(4,5-dihydro-1H-imidazol-2-ylamino)ethoxy]-2-hydroxybenzoyl}-amino)-2-[(isobutoxycarbonyl)amino]propanoic acid] was 0.13 µM; that for `N=C(N)NCCOc1ccc(C(=O)NC[C@H](NC(=O)CC23CC4CC(CC(C4)C2)C3)C(=O)O)c(O)c1` [Example 196, (2S)-2-{[2-(1-adamantyl)acetyl]amino}-3-{[4-(2-{[amino(imino)methyl]amino}-ethoxy)-2-hydroxybenzoyl]amino}propanoic acid] was 5.71 µM; that for `CCCCCCNC(=O)N[C@@H](CNC(=O)c1ccc(OCCNC2=NCCN2)cc1O)C(=O)O` [Example 109, (2S)-3-({4-[2-(4,5-dihydro-1H-imidazol-2-ylamino)ethoxy]-2-hydroxybenzoyl}-amino)-2-{[(hexylamino)carbonyl]amino}propanoic acid] was 0.251 µM.
For `O=C(N[C@@H](CNC(=O)c1ccc(OCCNC2=NCCN2)cc1O)C(=O)O)c1ccc(Br)cc1` [Example 139, (2S)-2-[(4-bromobenzoyl)amino]-3-({4-[2-(4,5-dihydro-1H-imidazol-2-ylamino)ethoxy]-2-hydroxybenzoyl}amino)propanoic acid], the IC50 is over 1 µM.
The figure for `N=C(N)NCCOc1ccc(C(=O)NC[C@H](NC(=O)c2ccccc2Cl)C(=O)O)c(O)c1` [Example 203, (2S)-3-{[4-(2-{[amino(imino)methyl]amino}ethoxy)-2-hydroxybenzoyl]amino}-2-[(2-chlorobenzoyl)amino]propanoic acid] is 14.1 µM.
As to `CCCCOC(=O)N[C@@H](CNC(=O)c1ccc(OCCNc2ncccn2)cc1O)C(=O)O` [Example 59, (2S)-2-[(butoxycarbonyl)amino]-3-({2-hydroxy-4-[2-(pyrimidin-2-ylamino)ethoxy]benzoyl}amino)propanoic acid], the IC50 was 100 µM.
